In ChEMBL document CHEMBL4130486, “Design, synthesis and immunological evaluation of novel amphiphilic desmuramyl peptides” (Eur J Med Chem, 2017) one finds Activity and Flu intensity data, which are given here for three molecules.

Calls of active or inactive are those of the source. The calls are words filed in the database; no cut-off is given here. A value given as a limit tells only on which side of the number the result lay.

In data set [1] the test system is THP-1. Kind of data set: Immunomodulatory activity in human THP1 cells assessed as increase in ICAM1 expression at 20 uM incubated for 21 hrs by immunostaining and flow cytometry. It counts as functional, cell-based. On the technique in general: Flow cytometry measures light scatter and fluorescence of single cells or particles in a stream.
The test system of data set [2] is THP-1. Kind of data set: Immunomodulatory activity in human THP1 cells assessed as increase in LPS-induced ICAM1 expression at 1 to 32 uM uM incubated for 21 hrs by immunostaining and flow cytometry. It counts as functional, cell-based.
Data set [3] deals with THP-1. As to the kind of experiment: Immunomodulatory activity in PMA-differentiated human THP1 cells assessed as increase in ICAM1 expression by measuring fluorescence intensity at 20 uM incubated for 21 hrs by immunostaining and flow cytometry (reference value: 602.95 No unit). Type of data set: functional.
In data set [4] the test system is THP-1. Kind of data set: Immunomodulatory activity in PMA-differentiated human THP1 cells assessed as increase in TNFalpha production at 1 to 30 uM incubated for 24 hrs by ELISA. Type of data set: functional, cell-based. In general terms: An ELISA detects its analyte on a solid surface through an enzyme-linked reagent.
For data set [5], the system named is THP-1. As to the kind of experiment: Immunomodulatory activity in PMA-differentiated human THP1 cells assessed as increase in TNFalpha production by measuring TNFalpha level at 15 uM incubated for 24 hrs by ELISA. Type of data set: functional.
The subject of data set [6] is THP-1. Kind of data set: Immunomodulatory activity in PMA-differentiated human THP1 cells assessed as increase in TNFalpha production at 30 uM incubated for 24 hrs by ELISA. Type of data set: functional, cell-based.
The subject of data set [7] is THP-1. As to the kind of experiment: Immunomodulatory activity in human THP1 cells assessed as increase in LPS-induced ICAM1 expression at 16 uM uM incubated for 21 hrs by immunostaining and flow cytometry. Type of data set: functional.
The subject of data set [8] is THP-1. Kind of data set: Immunomodulatory activity in PMA-differentiated human THP1 cells assessed as increase in LPS-induced ICAM1 expression by measuring fluorescence intensity at 8 uM pre-incubated for 1 hr before LPS stimulation and further incubated for 20 hrs by immunostaining and flow cytometry relative to LPS alone. Type of data set: functional.
In data set [9] the test system is THP-1. Kind of data set: Immunomodulatory activity in PMA-differentiated human THP1 cells assessed as increase in LPS-induced ICAM1 expression by measuring fluorescence intensity at <=4 uM pre-incubated for 1 hr before LPS stimulation and further incubated for 20 hrs by immunostaining and flow cytometry relative to LPS alone. Type of data set: functional, cell-based.

Data set [10] concerns THP-1. As to the kind of experiment: Immunomodulatory activity in PMA-differentiated human THP1 cells assessed as increase in LPS-induced ICAM1 expression by measuring fluorescence intensity at =>16 uM pre-incubated for 1 hr before LPS stimulation and further incubated for 20 hrs by immunostaining and flow cytometry relative to LPS alone. It counts as functional, cell-based.

Data set [11] deals with THP-1. As to the kind of experiment: Toxicity in PMA-differentiated human THP1 cells assessed as cell death at 0.1 to 64 uM by trypan blue dye based assay. The note with it: thp-1, 64 µM.
Data set [12] deals with THP-1. Kind of data set: Immunomodulatory activity in PMA-differentiated human THP1 cells assessed as increase in LPS-induced ICAM1 expression by measuring fluorescence intensity at 20 uM pre-incubated for 1 hr before LPS stimulation and further incubated for 20 hrs by immunostaining and flow cytometry relative to LPS alone. It counts as functional, cell-based.

Turning to `CCCCCCNC(=O)CC[C@@H](NC(=O)[C@H](C)NC(=O)COc1cccc(NCCCO)c1)C(N)=O`, the outcome in the data set with THP-1 [1], in the data set on THP-1 [2] and in the data set with THP-1 [4] was Active. For the same molecule, in the data set on THP-1 [3], the Flu intensity was 885.76. In addition, the Activity with THP-1 [5] came out at 3622 pg/mL. Moreover, the outcome in the data set on THP-1 [6] was inactive.
Consider `CCCCCCNC(=O)CC[C@@H](NC(=O)[C@H](C)NC(=O)COc1cccc(N(CCCO)CCCO)c1)C(N)=O`, for which the result in the data set on THP-1 [1], with THP-1 [2], in the data set with THP-1 [9] and with THP-1 [4] was Active. The Activity entry was “<=46%” in the data set on THP-1 [7], “<=33%” with THP-1 [8], 3606 pg/mL with THP-1 [5] and “Non-Toxic” in the data set on THP-1 [11]. The Flu intensity in the data set on THP-1 [3] was found to be 777.29. The result with THP-1 [10] and in the data set on THP-1 [6] was inactive.
Consider `CCCCOC(=O)[C@@H](CCC(N)=O)NC(=O)[C@H](C)NC(=O)[C@@H](C)O[C@H]1[C@H](O)[C@@H](CO)OC(O)[C@@H]1NC(C)=O` (some centres not stated) [MURABUTIDE], for which the result in the data set with THP-1 [1] and in the data set on THP-1 [12] was Active. Further, the Flu intensity in the data set on THP-1 [3] is 1436.05. In addition, the Activity in the data set with THP-1 [5] was determined as 2694 pg/mL. The result in the data set with THP-1 [6] was inactive.
